Data set [1] concerns HCV replicon (genotype 1b) in Huh7 cell line ET. The data set is described as follows: microbe, parasite or virus in culture. It is filed as cell-based, HCV genotype 1b.
For data set [2], the system named is Huh-7 ET, Molt-4, DU-145, Hep-G2 and SH-SY5Y cells. The data set is described as follows: [3H]Thymidine incorporation assay (cell toxicity). The settings on record: read-out: [3H]Thymidine CC50; [3H]thymidine incorporation, cell toxicity; mean value class; cell line not given. A general note: Dividing cells build labelled thymidine or BrdU into new DNA.
Data set [3] relates to HCV sub-genomic replicon of genotype 1a in replicon cell line W11.8. The experiment in a line: microbe, parasite or virus in culture. It is filed as cell-based, HCV genotype 1a. The settings on record: Hepatitis C virus, W11.8, 96 h, read-out: HCV-Replicon-ELISA-1a IC50. From the text: This procedure below describes the HCV replicon assay using a Huh7 hepatoma cell line harboring a highly cell culture-adapted replicon (genotype 1b) (hereafter named cell line ET). The ET cells contained the highly cell culture-adapted replicon I389luc-ubi-neo/NS3-3′/5.1 construct that carried, in addition to the neomycin gene, an integrated copy to the firefly luciferase gene (Krieger, N; Lohmann, V; Bartenschlager, R. Enhancement of hepatitis C virus RNA replication by cell culture-adaptive mutations. J. Virol. 2001, 75, 4614-4624). A replicon cell line W11.8, containing the 1a genotype of HCV was also used. These two cell lines (genotype 1b and 1a) allowed measurement of RNA replication and translation by measuring luciferase activity (against genotype 1b) or by measuring the NS5A level using the ELISA assay (against genotype 1a). […] ET cell lines were maintained in cultures at a sub-confluent level (<85%). The culture media used for cell passaging consisted of DMEM (Gibco BRL Laboratories, Mississauga, ON, Canada) supplemented with 10% fetal bovine serum with 1% penicilin/streptomycin, 1% glutamine, 1% sodium pyruvate, 1% non-essential amino acids, and 180 µg/ml of G418 final concentration.
Replicon cell lines W11.8 containing a sub-genomic replicon of genotype 1a was used for the HCV Replicon Cell-Based detection using the ELISA. The RNA replication in presence of different drug concentrations was indirectly measured in these cell lines by the level of NS5A protein content upon drug treatment for four days. The NS5A is a non-structural protein of HCV and is used as marker of HCV replication in this assay.
For the treatment of the cells with the testing drug, Culture medium was removed from the 175 cm^2 T-flask by aspiration. Cell monolayer was rinsed with 10-20 mL of PBS 1× at room temperature. PBS was removed by aspiration. Cells were trypsinized using 3 mL of Trypsin (0.25%)/EDTA (0.1%) solution. Flasks were incubated at 37° C. (incubator) for 7 minutes. Complete medium (9 mL) without G418 is then added. Cell clumps were disrupted by pipetting up and down several times.
The cell suspension was then transferred to a 50 mL Falcon polypropylene tube. Cells were then counted several times using the haemocytometer. Cells were diluted at 50,000 cells/mL with complete DMEM without G418, then transferred into a sterile reservoir. Using a multichannel pipet, approximately 5,000 viable cells (100 μL) were plated per well in a white opaque 96-well microtiter plate. After an incubation period of 2-4 hours at 37° C. in a 5% CO2 incubator, compounds were added at various concentrations.
Drugs were resuspended in DMSO at a stock concentration of 100 mM or 10 mM. […] Then, drugs were diluted at twice the final concentration in the same medium (without G418) described earlier, in sterile 96-deep well plate and according to a particular template (see Appendix). One volume (100 μL) of each drug dilution was then added to each well that contains cells.
Sixteen wells were used as control (0% inhibition) without drug. Eight wells were used as background control (100% inhibition) containing 2 μM (final concentration) of the reference compound. […] Values from 100% inhibited wells were averaged and used as the background value. Cells are further incubated for 4 days at 37° C. in a 5% CO2 incubator.
For the measurement of NS5A protein content, following the incubation time of four days, the media was throwed into an appropriate waste container by inverting the plate. Any residual liquid was removed by tapping gently on absorbent paper several times. The plates were then washed once with 150 μL of PBS per well, and then incubated for 5 minutes at room temperature on a shaker (500 rpm).
A general note: In antiviral work, replicon cells carry a viral genome segment that copies itself.

Data set [4] can be described thus: [3H]Thymidine incorporation assay (cell toxicity). The settings on record: human.
[5] abbreviates: read-out: HCV-Replicon-(Luci-ET) 1b_IC50.
Setting [6] is: Hepatitis C virus, Huh-7, 96 h, read-out: HCV-Replicon (Luci-ET)-1b_IC50.

Like-named read-outs stand apart in the source and are kept apart here.

For `CO[C@H](C)[C@@H](C(=O)N(C)C)N(c1cc(C#CC(C)(C)C)sc1C(=O)O)C(=O)[C@H]1CC[C@H](C)CC1` [Compound 57], the IC50 in data set [1] (setting [5]) is below 100 nM. The CC50 in data set [2] is above 100000 nM.
Turning to `COC(C)C(C(=O)N1CCOCC1)N(C(=O)C1CCC(C)CC1)c1cc(C#CC(C)(C)C)sc1C(=O)O` (stereo not drawn) [Compound 65], the IC50 in data set [1] (setting [5]) is below 100 nM. Moreover, in data set [2], the cytotoxic concentration (CC50) is above 100000 nM.
For `CC(C)C#Cc1cc(N(CC(=O)N2CC3(COC3)C2)C(=O)C2CCC(C)CC2)c(C(=O)O)s1` (stereo not drawn) [Compound 71], in that order: below 100 nM and above 100000 nM.
As for `CC(C)(C)C#Cc1cc(N(CC(=O)N2CCOCC2)C(=O)c2ccc(Cl)cc2Cl)c(C(=O)O)s1` [Compound 124, 3-[(2,4-dichlorobenzoyl)-(2-morpholino-2-oxo-ethyl)amino]-5-(3,3-dimethylbut-1-ynyl)thiophene-2-carboxylic acid], the IC50 in data set [3] and in data set [1] (setting [6]) was below 100 nM each time. Besides, the CC50 at 72 h in data set [4] was above 100000 nM.
Turning to `CC(C)CC#Cc1cc(N(CC(=O)N2CCOCC2)C(=O)[C@H]2CC[C@H](C)CC2)c(C(=O)O)s1` [Compound 130, 3-[(trans-4-methylcyclohexanecarbonyl)-(2-morpholino-2-oxo-ethyl)amino]-5-(4-methylpent-1-ynyl)thiophene-2-carboxylic acid], the IC50 in data set [3] and in data set [1] (setting [6]) was 100 to 1000 nM throughout. In addition, the CC50 at 72 h in data set [4] is above 100000 nM.
Regarding `CCN1CC[C@H](N(c2cc(C#CC(C)(C)C)sc2C(=O)O)C(=O)[C@H]2CC[C@H](C)CC2)C1=O` [Compound 131, 5-(3,3-dimethylbut-1-ynyl)-3-[[(3S)-1-ethyl-2-oxo-pyrrolidin-3-yl]-(trans-4-methylcyclohexanecarbonyl)amino]thiophene-2-carboxylic acid], the IC50 in data set [3] and in data set [1] (setting [6]) was below 100 nM in each case. The same compound had a CC50 at 72 h in data set [4] above 100000 nM.
For the compound `COCCN1CC[C@H](N(c2cc(C#CC(C)(C)C)sc2C(=O)O)C(=O)[C@H]2CC[C@H](C)CC2)C1=O` [Compound 133, 5-(3,3-Dimethylbut-1-ynyl)-3-[[(3S)-1-(2-methoxyethyl)-2-oxo-pyrrolidin-3-yl]-(trans-4-methylcyclohexanecarbonyl)amino]thiophene-2-carboxylic acid], the IC50 in data set [3] and in data set [1] (setting [6]) was below 100 nM in each case. Moreover, the CC50 at 72 h in data set [4] was above 100000 nM.
With `CCN1CCCC[C@H](N(c2cc(C#CC(C)(C)C)sc2C(=O)O)C(=O)[C@H]2CC[C@H](C)CC2)C1=O` [Compound 134, (S)-5-(3,3-Dimethylbut-1-ynyl)-3-((trans)-4-methyl-N-(1-ethyl-2-oxoazepan-3-yl)cyclohexanecarboxamido)thiophene-2-carboxylic acid], the IC50 in data set [3] and in data set [1] (setting [6]) was below 100 nM in each case. In addition, the cytotoxic concentration (CC50) at 72 h in data set [4] is 10000 to 100000 nM.
Turning to `CN1CCOC[C@H](N(c2cc(C#CC(C)(C)C)sc2C(=O)O)C(=O)[C@H]2CC[C@H](C)CC2)C1=O` [Compound 136, (S)-5-(3,3-Dimethylbut-1-ynyl)-3-[(trans)-4-methyl-N-(4-methyl-5-oxo-1,4-oxazepan-6-yl)cyclohexanecarboxamido]thiophene-2-carboxylic acid], the IC50 in data set [3] and in data set [1] (setting [6]) was below 100 nM throughout. Besides, the half-maximal cytotoxic concentration (CC50) at 72 h in data set [4] is above 100000 nM.
Turning to `CN1CCCC[C@H](N(C(=O)c2ccc(Cl)cc2Cl)c2cc(C#CC(C)(C)C)sc2C(=O)O)C1=O` [Compound 137, (S)-5-(3,3-Dimethylbut-1-ynyl)-3-[(2,4-dichlorobenzoyl)-N-(1-methyl-2-oxoazepan-3-yl)amino]-thiophene-2-carboxylic acid], the IC50 in data set [3] and in data set [1] (setting [6]) was below 100 nM in each case. Further, the cytotoxic concentration (CC50) at 72 h in data set [4] is above 100000 nM.
For `COCCN1CCCC[C@H](N(c2cc(C#CC(C)(C)C)sc2C(=O)O)C(=O)[C@H]2CC[C@H](C)CC2)C1=O` [Compound 138, (S)-5-(3,3-Dimethylbut-1-ynyl)-3-((trans)-4-methyl-N-(1-(2-methoxyethyl)-2-oxoazepan-3-yl)cyclohexanecarboxamido)thiophene-2-carboxylic acid], the IC50 in data set [3] and in data set [1] (setting [6]) was below 100 nM each time. Besides, the CC50 at 72 h in data set [4] is above 100000 nM.
For the compound `CC(C)(C)C#Cc1cc(N(C(=O)[C@H]2CC[C@H](C)CC2)[C@H]2CCN(CCO)C2=O)c(C(=O)O)s1` [Compound 139, 5-(3,3-Dimethylbut-1-ynyl)-3-[[(3S)-1-(2-hydroxyethyl)-2-oxo-pyrrolidin-3-yl]-(trans-4-methylcyclohexanecarbonyl)amino]thiophene-2-carboxylic acid], the IC50 in data set [3] and in data set [1] (setting [6]) was below 100 nM each time. The compound further returned a half-maximal cytotoxic concentration (CC50) at 72 h in data set [4] above 100000 nM.
As to `CN1CCC[C@H](N(C(=O)c2ccc(Cl)cc2Cl)c2cc(C#CC(C)(C)C)sc2C(=O)O)C1=O` [Compound 140, (S)-5-(3,3-Dimethylbut-1-ynyl)-3-[(2,4-dichlorobenzoyl)-N-(1-methyl-2-oxopiperidin-3-yl)amino]-thiophene-2-carboxylic acid], the IC50 in data set [3] and in data set [1] (setting [6]) was below 100 nM throughout. For the same compound, the half-maximal cytotoxic concentration (CC50) at 72 h in data set [4] is above 100000 nM.
As to `CC(C)N1CC[C@H](N(c2cc(C#CC(C)(C)C)sc2C(=O)O)C(=O)[C@H]2CC[C@H](C)CC2)C1=O` [Compound 142, 5-(3,3-dimethylbut-1-ynyl)-3-[[(3S)-1-isopropyl-2-oxo-pyrrolidin-3-yl]-(trans-4-methylcyclohexanecarbonyl)amino]thiophene-2-carboxylic acid], the IC50 in data set [3] and in data set [1] (setting [6]) was below 100 nM each time. Further, the half-maximal cytotoxic concentration (CC50) at 72 h in data set [4] lay in the range of 10000 to 100000 nM.
For the compound `CC[C@@H](C(=O)N1CCOCC1)N(C(=O)c1ccc(Cl)cc1Cl)c1cc(C#CC(C)(C)C)sc1C(=O)O` [Compound 143, (S)-5-(3,3-Dimethylbut-1-ynyl)-3-[(2,4-dichlorobenzoyl)-[1-(morpholine-4-carbonyl)propyl]amino]-thiophene-2-carboxylic acid], the IC50 in data set [3] and in data set [1] (setting [6]) was below 100 nM throughout. In data set [4], the half-maximal cytotoxic concentration (CC50) at 72 h was 10000 to 100000 nM.
For `CC(C)N1CCCC[C@H](N(c2cc(C#CC(C)(C)C)sc2C(=O)O)C(=O)[C@H]2CC[C@H](C)CC2)C1=O` [Compound 146, (S)-5-(3,3-Dimethylbut-1-ynyl)-3-((trans)-4-methyl-N-(1-isopropyl-2-oxoazepan-3-yl)cyclohexanecarboxamido)thiophene-2-carboxylic acid], the IC50 in data set [3] and in data set [1] (setting [6]) was below 100 nM in each case. In data set [4], this compound came in with a CC50 at 72 h of 10000 to 100000 nM.
On to `CCN1CCC[C@H](N(c2cc(C#CC(C)(C)C)sc2C(=O)O)C(=O)[C@H]2CC[C@H](C)CC2)C1=O` [Compound 148, (S)-5-(3,3-Dimethylbut-1-ynyl)-3-((trans)-4-methyl-N-(1-ethyl-2-oxopiperidin-3-yl)cyclohexanecarboxamido)thiophene-2-carboxylic acid], for which the IC50 in data set [3] and in data set [1] (setting [6]) was below 100 nM throughout. Moreover, the CC50 at 72 h in data set [4] is above 100000 nM.
Turning to `CC(C)N1CCC[C@H](N(c2cc(C#CC(C)(C)C)sc2C(=O)O)C(=O)[C@H]2CC[C@H](C)CC2)C1=O` [Compound 149, (S)-5-(3,3-Dimethylbut-1-ynyl)-3-((trans)-4-methyl-N-(1-isopropyl-2-oxopiperidin-3-yl)cyclohexanecarboxamido)thiophene-2-carboxylic acid], the IC50 in data set [3] and in data set [1] (setting [6]) was below 100 nM throughout. The 50% cytotoxic concentration (CC50) at 72 h in data set [4] is 10000 to 100000 nM.

In general, CC50 refers to the concentration giving 50% cytotoxicity.

The values above are taken from patent publication US20130190289A1, “COMPOUNDS AND METHODS FOR THE TREATMENT OR PREVENTION OF FLAVIVIRUS INFECTIONS” (priority 2010, published 2013).
